Measurements reported in publication PMC12586182 (Frontiers in Oncology, 2025).

Columns and labels:
Test in all cases: Kinase panel profiling at 1 µmol/L (mobility shift assay, Carna)
Assay type in all cases: biochemical
Conditions in all cases: 1 µmol/L of BTK inhibitor
IKKβ = biological target: T1, IKKβ (Homo sapiens, UniProt O14920)
T1 construct: purchased Carna Biosciences
T1 sequence (O14920 1-756): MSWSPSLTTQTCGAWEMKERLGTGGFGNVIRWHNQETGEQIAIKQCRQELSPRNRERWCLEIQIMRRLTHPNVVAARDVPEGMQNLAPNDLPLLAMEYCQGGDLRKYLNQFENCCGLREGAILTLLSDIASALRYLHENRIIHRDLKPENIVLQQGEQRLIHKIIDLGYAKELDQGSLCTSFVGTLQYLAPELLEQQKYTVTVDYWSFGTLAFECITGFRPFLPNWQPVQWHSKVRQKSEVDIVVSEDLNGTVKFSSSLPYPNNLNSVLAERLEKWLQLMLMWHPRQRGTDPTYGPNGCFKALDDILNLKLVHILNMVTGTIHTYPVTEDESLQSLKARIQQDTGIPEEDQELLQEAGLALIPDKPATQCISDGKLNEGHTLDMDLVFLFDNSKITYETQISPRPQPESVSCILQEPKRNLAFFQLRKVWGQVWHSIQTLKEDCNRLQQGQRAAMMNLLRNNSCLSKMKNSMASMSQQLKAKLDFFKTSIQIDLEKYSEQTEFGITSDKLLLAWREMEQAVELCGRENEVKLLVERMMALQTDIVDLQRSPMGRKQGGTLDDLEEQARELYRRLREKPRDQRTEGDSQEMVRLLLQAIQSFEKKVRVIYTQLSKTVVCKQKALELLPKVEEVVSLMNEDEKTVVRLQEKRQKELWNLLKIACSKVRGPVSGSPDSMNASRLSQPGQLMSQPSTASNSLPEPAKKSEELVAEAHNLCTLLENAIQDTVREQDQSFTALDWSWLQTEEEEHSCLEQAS

p38γ = biological target: T2, p38γ (Homo sapiens, UniProt P53778)
T2 construct: purchased Carna Biosciences
T2 sequence (P53778 1-367): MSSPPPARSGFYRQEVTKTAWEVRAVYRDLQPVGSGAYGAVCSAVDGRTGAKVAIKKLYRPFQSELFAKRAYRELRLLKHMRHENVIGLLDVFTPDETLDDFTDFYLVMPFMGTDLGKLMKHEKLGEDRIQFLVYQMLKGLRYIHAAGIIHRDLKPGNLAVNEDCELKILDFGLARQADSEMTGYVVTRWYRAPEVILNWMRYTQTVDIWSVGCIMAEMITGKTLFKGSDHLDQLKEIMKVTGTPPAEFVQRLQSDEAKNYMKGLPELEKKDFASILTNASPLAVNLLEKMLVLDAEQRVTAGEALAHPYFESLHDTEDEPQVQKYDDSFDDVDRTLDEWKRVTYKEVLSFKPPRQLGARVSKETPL

NEK1 = biological target: T3, NEK1 (Homo sapiens, UniProt Q96PY6)
T3 construct: purchased Carna Biosciences
T3 sequence (Q96PY6 1-1258): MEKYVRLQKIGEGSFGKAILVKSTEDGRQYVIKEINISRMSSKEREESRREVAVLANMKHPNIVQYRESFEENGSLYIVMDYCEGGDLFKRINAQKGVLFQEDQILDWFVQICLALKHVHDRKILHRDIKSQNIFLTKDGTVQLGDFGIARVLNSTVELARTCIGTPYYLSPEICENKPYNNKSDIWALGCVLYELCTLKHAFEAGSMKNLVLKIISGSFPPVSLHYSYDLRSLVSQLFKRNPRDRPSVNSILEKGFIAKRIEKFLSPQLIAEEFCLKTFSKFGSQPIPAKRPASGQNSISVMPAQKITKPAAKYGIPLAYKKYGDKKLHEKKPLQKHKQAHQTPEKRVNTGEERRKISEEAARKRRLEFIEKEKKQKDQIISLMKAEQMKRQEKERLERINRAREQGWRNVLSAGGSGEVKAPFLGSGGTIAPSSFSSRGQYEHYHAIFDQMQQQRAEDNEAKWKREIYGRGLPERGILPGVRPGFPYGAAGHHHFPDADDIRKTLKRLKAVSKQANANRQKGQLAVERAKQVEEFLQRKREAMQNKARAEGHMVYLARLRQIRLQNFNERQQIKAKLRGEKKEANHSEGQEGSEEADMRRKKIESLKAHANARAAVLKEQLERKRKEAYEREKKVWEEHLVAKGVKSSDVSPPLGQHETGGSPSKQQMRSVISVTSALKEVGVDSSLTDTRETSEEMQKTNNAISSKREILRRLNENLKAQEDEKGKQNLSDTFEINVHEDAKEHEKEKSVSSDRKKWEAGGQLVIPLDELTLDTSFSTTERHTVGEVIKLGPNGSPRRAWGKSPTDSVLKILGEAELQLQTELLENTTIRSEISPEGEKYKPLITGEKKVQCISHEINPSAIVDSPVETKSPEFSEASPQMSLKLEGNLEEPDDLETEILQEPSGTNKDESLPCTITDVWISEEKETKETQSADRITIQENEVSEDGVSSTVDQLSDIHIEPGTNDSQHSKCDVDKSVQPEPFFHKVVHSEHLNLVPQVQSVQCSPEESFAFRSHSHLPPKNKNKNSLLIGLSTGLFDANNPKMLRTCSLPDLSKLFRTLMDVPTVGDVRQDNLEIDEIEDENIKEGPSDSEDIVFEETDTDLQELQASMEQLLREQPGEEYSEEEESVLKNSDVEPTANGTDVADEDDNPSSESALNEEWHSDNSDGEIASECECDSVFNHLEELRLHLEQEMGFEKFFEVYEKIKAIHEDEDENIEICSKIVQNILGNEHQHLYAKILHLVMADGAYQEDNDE

MINK = biological target: T4, MINK (Homo sapiens, UniProt Q8N4C8)
T4 construct: purchased Carna Biosciences
T4 sequence (Q8N4C8 whole entry): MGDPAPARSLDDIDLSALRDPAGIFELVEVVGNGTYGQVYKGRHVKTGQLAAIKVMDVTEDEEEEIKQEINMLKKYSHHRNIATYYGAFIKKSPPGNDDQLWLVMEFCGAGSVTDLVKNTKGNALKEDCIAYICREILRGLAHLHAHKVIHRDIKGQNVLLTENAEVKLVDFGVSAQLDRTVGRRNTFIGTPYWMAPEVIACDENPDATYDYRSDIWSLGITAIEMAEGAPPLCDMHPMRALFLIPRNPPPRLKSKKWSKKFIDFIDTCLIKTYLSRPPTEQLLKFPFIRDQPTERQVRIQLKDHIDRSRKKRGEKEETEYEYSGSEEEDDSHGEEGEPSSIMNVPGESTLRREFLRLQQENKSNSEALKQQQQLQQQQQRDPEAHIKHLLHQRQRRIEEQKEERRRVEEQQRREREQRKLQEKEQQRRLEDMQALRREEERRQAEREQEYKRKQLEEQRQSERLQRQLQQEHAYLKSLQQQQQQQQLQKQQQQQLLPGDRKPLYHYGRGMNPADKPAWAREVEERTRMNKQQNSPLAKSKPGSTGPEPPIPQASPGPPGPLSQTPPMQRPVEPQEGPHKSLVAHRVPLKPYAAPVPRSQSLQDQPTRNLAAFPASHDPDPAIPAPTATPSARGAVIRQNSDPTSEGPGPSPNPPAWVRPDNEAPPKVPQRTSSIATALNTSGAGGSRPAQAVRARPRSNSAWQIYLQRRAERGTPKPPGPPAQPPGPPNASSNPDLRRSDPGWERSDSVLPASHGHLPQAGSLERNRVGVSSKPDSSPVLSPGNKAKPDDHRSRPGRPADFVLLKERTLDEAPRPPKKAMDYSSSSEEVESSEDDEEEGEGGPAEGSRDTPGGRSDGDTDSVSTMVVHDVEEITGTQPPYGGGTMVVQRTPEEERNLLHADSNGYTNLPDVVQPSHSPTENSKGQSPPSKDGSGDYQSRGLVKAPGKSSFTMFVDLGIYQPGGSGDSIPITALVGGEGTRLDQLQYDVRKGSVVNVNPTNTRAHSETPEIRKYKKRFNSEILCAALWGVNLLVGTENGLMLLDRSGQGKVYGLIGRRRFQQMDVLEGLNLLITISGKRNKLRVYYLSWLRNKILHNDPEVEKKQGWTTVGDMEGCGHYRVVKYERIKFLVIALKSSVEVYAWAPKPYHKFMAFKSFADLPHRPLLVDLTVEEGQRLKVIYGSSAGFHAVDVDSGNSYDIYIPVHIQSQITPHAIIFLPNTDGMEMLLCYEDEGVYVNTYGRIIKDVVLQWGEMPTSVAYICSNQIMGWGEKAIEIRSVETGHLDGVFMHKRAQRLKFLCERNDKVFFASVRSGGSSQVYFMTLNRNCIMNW

IRR = biological target: T5, IRR (Homo sapiens, UniProt P14616)
T5 construct: purchased Carna Biosciences
T5 sequence (P14616 27-1297): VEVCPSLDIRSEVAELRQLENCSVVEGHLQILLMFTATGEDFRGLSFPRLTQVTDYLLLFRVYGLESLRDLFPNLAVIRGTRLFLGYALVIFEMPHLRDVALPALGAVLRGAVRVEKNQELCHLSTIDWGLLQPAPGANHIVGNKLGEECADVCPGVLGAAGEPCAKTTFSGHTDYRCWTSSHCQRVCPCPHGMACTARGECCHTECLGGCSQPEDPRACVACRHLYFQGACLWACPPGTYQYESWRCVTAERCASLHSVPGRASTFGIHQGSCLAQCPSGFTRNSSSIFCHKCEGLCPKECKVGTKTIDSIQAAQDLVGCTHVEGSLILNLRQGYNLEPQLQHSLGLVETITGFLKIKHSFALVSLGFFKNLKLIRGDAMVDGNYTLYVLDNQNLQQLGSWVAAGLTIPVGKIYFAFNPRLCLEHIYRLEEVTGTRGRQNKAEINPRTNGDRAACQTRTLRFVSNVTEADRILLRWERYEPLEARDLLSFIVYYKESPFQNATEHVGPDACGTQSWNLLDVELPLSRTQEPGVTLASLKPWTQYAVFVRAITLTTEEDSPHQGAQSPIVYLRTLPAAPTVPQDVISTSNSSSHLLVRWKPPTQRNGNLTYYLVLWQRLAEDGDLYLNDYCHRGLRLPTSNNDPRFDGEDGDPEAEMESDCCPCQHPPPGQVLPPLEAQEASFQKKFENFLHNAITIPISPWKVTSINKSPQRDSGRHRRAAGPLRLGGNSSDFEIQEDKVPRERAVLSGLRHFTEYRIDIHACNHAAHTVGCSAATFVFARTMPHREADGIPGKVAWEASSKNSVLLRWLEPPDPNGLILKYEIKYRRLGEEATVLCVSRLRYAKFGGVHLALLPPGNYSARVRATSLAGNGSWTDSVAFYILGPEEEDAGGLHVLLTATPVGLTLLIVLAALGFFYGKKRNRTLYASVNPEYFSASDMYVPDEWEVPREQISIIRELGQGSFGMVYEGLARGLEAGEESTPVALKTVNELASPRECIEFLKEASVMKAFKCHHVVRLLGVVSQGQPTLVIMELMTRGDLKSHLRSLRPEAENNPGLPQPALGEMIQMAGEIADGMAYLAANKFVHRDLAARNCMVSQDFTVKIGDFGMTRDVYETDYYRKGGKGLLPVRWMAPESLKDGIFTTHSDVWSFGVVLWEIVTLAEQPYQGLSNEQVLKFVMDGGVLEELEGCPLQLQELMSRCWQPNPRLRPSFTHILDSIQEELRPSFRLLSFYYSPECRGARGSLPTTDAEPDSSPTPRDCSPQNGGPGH

Compound	Percentage inhibition of kinase enzyme activity (IKKβ) [%]	Percentage inhibition of kinase enzyme activity (p38γ) [%]	Percentage inhibition of kinase enzyme activity (NEK1) [%]	Percentage inhibition of kinase enzyme activity (MINK) [%]	Percentage inhibition of kinase enzyme activity (IRR) [%]
CC#CC(=O)N1CCC[C@H]1c1nc(-c2ccc(C(=O)Nc3ccccn3)cc2)c2c(N)nccn12 [acalabrutinib]	-6.98	-1.74	-7.46	-1.13	-0.87
C=CC(=O)N1CCC[C@@H](n2nc(-c3ccc(Oc4ccccc4)cc3)c3c(N)ncnc32)C1 [ibrutinib]	-0.35	3.51	3.73	-6.41	11.54
O=C(c1ccc(Oc2ccccc2)cc1Cl)c1c[nH]c2ncnc(N[C@@H]3CC[C@@H](CO)OC3)c12 [nemtabrutinib]	-1.18	0.72	-1.75	46.67	77.13
COc1ccc(F)cc1C(=O)NCc1ccc(-c2nn([C@@H](C)C(F)(F)F)c(N)c2C(N)=O)cc1 [pirtobrutinib]	0.58	-2.05	-2.24	-0.79	-6.47
C=CC(=O)N1CCC([C@@H]2CCNc3c(C(N)=O)c(-c4ccc(Oc5ccccc5)cc4)nn32)CC1 [zanubrutinib]					34.27
